In patent publication US20040072750A1, “Compounds and methods for the modulation of CD154” (priority 2001, published 2004):
Entries after “also recorded” stand apart in the source; their conditions may differ. Bridge positions count the residues as written; N and C are the ends. Square brackets hold non-standard residues; d marks the D form. Peptide text beside a SMILES is read from it. hArg = N=C(N)NCCCC[C@H](N)C(=O)O; Mpa = O=C(O)CCS

B1: rsCD154: bacterially expressed recombinant human soluble CD154 (108 a.a-261 a.a.), 18-kDa protein (protein)
chain: ENSFEMQKGDQNPQIAAHVISEASSKTTSVLQWAEKGYYTMSNNLVTLENGKQLTVKRQGLYYIYAQVTFCSNREASSQAPFIASLCLKSPGRFERILLRAANTHSSAKPCGQQSIHLGGVFELQPGASVFVNVTDPSQVSHGTGFTSFGLLKL

Experiments:
platelets [1] = assay: Release of sCD154 from stimulated platelets in platelet-rich plasma (ELISA); assay type: cell-based, human
Protocol: Platelet-rich plasma (PRP) was prepared from human donors by obtaining blood through a 19-gauge butterfly into PPACK anticoagulant (8.6 ml of 2.1 mM PPACK, Calbiochem, La Jolla, Calif.: final concentration 0.3 mM). Blood was aliquoted into 15 ml polypropylene tubes and centrifuged at 900 rpm for 20 minutes (160×g). The platelet rich plasma (PRP) was carefully removed and pooled in a new tube. Platelet counts were taken and recorded. Aliquots of PRP at 37° C. were then added to 1.5 ml microcentrifuge tubes containing various amounts of eptifibatide. To initiate aggregation, 20 μM ADP 4 μg/mL collagen or 5 μM TRAP6 was added and samples were rocked on a Nutator for 30 minutes at 37° C. The tubes were put on ice and immediately centrifuged at 15,000×g for 10 minutes at 4° C.
The platelet-poor plasma (PPP) supernatant was removed to new tubes and the levels of sCD154 in these samples were measured by ELISA. There was a time-dependent increase in sCD154 release when platelets were aggregated with either ADP or TRAP6.
In other experiments, various concentrations of eptifibatide, abciximab or tirofiban were added to PRP before the addition of TRAP. In the eptifibatide experiments, the release of βTG from platelet a granules was determined from PPP samples by ELISA. Inhibition of aggregation by GP IIb-IIIa antagonists was determined in PPACK-anticoagulated PRP by light-transmission aggregometry (Chrono-Log) as described in Phillips et al. (1995) J Exp. Med 182:33-40. To assess the effect of aspirin use on the release of sCD154 from platelets, PRP was obtained from 7 donors, incubated with a single concentration of GP IIb-IIIa inhibitor, and stimulated with 20 μmol/L ADP, 5 μmol/L TRAP or 4 μg/mL collagen for 30 minutes while rocking at 37° C. Resultant PPP was measured for sCD154. The same donors then took 325 mg of aspirin for 7 days. PRP was again collected and subjected to the same conditions, and the release of sCD154 was determined. A control reading (no addition of inhibitor) was taken with the agonist 0.5 mmol/L arachidonic acid in citrated PRP to ensure that the aspirin had been taken.

platelets [2] = assay: Platelet surface expression of CD154 and release of thrombospondin; assay type: cell-based, human
platelets [3] = assay: Release of sCD154 from stimulated platelets in platelet-rich plasma (ELISA); assay type: cell-based, human; details: unstirred, FIG. 12B
[4] = system: Human umbilical vein endothelial cells (HUVECS); assay: Inflammatory response of endothelial cells to rsCD154 (MCP-1 ELISA, tissue factor clotting assay, ICAM-1/E-Selectin FACS); assay type: cell-based
Protocol: Inflammation in the present invention study was measured by the upregulation of tissue factor on cultured endothelial cells. Endothelial cells were the cells selected for study as this is the most abundant cell exposed to blood and is known to express […], the ligand for CD154 (Yellin, MJ, J. Exp Med, 182: 1857(1995)).
Human umbilical vein endothelial cells (HUVECS) purchased from Clonetics Inc. were cultured with M199 containing 20% FBS, 50 μg/ml endothelial mitogen (Biomedical technologies Inc.) 2 mM glutamine, 1 mM Sodium Pyruvate, 1× Nonessential amino acids, 100 U/ml of penicillin/streptomycin and 100 μg/ml heparin. HUVECS (passage 3-5) grown in 6 well dishes or 96 well tissue culture plates coated with 0.75% bovine skin gelatin (Sigma chemicals) were incubated without and with different concentrations (100 ng-10 μg/ml) of rsCD 154 in the presence of TRAP-1 (monoclonal antibody against hCD154, BD Pharmingen) or MOPC-21 (mouse IgG, Sigma) for 4 hrs at 37° C. in Tyrode's-Hepes buffer (12 mM NaHCO3, 138 mM NaCl, 5.5 mM glucose, 2.9 mM KCl, 10 mM Hepes, 1 mM CaCl2, 1 mM MgCl2, pH 7.4). […]
The supernatants were collected and the concentrations of MCP-1 determined by ELISA. Expression of tissue factor was determined by clotting assays performed with the HUVECS in the 96 well plates. […] The expression of ICAM-1 and E-Selectin was determined by FACS analysis (FACSort, Beckton Dickinson) following release of the HUVECS from the dishes. HUVECS, when exposed to 2 μg/ml rsCD154, secreted 3 fold more MCP-1 after 4 hrs and this increase was blocked by anti-CD154 antibody, but not by an isotype matched control antibody. As measured by clotting assay there was 50% reduction in clotting time, which was reversed in the presence of TRAP-1.

| Molecule | Inhibition of sCD154 Release at >90% Platelet Aggregation Inhibition, % (platelets [1]; TRAP-stimulated platelets, release without GP IIb-IIIa inhibitor set at 100%, average and SD) | release of sCD154 from platelets activated with ADP or TRAP (platelets [1]; inhibitor added prior to agonist, PPACK plasma) | Potentiation of sCD154 Release, % (platelets [1]; maximal potentiation, TRAP-stimulated platelets, release without inhibitor set at 100%, average and SD) | thrombin- or TRAP-induced surface expression of CD154 (platelets [2]) | TRAP-induced release of thrombospondin (platelets [2]; data not shown) | sCD154 shedding from TRAP-activated platelets without aggregation (platelets [3]) | increased expression of ICAM-1 and E-Selectin ([4]; 2 μg/ml of rsCD154, FACS) | MCP-1 secretion by HUVECS ([4]; 2 μg/ml rsCD154, 4 hrs) | reduction in clotting time (tissue factor clotting assay) ([4]; HUVECS exposed to rsCD154) |
| --- | --- | --- | --- | --- | --- | --- | --- | --- | --- |
| N=C(N)NCCCC[C@@H]1NC(=O)CCSSC[C@@H](C(N)=O)NC(=O)[C@@H]2CCCN2C(=O)[C@H](Cc2c[nH]c3ccccc23)NC(=O)[C@H](CC(=O)O)NC(=O)CNC1=O [eptifibatide] ([Mpa][hArg]GDWPC-NH2; disulfide 1-7) | 85 ± 6.3% | blocked in a dose dependent manner; also recorded: inhibited | 26 ± 10% | did not affect; also recorded: unaffected | did not affect; also recorded: without affecting | inhibited | – | – | – |
| B1 | – | – | – | – | – | – | 2 fold | 3 fold | 50% |
